Like-named read-outs stand apart in the source and are kept apart here.
Legend:
[1] = tested on: Rat; conditions: cited from earlier work
[2] = tested on: Actinomyces viscosus T14V; format: cell-based; conditions: for % Red. / Bact. Count (Log 10): Table VIII
From the text: The SIKT test is a basic microbiological test which incorporates a fixed contact time. […] The system is then neutralized to inhibit further antimicrobial activity. The surviving bacteria are enumerated using plate count methodology. The reduction in counts compared to a water control is the basis for expressing activity. A three log reduction is usually considered significant.

[3] = oral, values reported in the literature
[4] = Table VI, rinses, with and without Carbopol polymers

Q: Which “LD 50 (Oral, Rat)” value [1, 3] does the source give for `CC(C)=CCC[C@](C)(O)C1CC=C(C)CC1` (stereo partly drawn) [Bisabolol] here?
A: Its value is 5000 mg/kg.

Q: With `[H]/N=C(\N/C(=N/[H])NCCCCCCNC(=N)NC(=N)Nc1ccc(Cl)cc1)Nc1ccc(Cl)cc1` [Chlorhexidine, reference compound] as the compound, how does the “% Reduction” value [2, 4] read?
A: The value was over 99.00%.

Q: What about the “Bacterial Count (log 10)” value [2, 4] of the same compound?
A: The value was 4.52 log 10.

Q: With `CC(C)=CCCC(C)=CCCC(C)=CCO` [Farnesol] as the compound, how does the “% Red.” value ([2]; concentration 0.005) read?
A: Its value is 99.9%.

Q: What about the “Bact. Count (Log 10)” value ([2]; concentration 0.005) of the same compound?
A: Its value is 3.66 Log 10.

Q: And the “% Red.” value ([2]; concentration 0.0075)?
A: The value was over 99.99%.

Q: And the “Bact. Count (Log 10)” value ([2]; concentration 0.0075)?
A: Its value is 2.50 Log 10.

Q: What about the “% Red.” value ([2]; concentration 0.01) of the same compound?
A: The value was over 99.99%.

Q: And the “Bact. Count (Log 10)” value ([2]; concentration 0.01)?
A: The value was under 2.00 Log 10.

Q: And the “% Red.” value ([2]; concentration 0.02)?
A: The value was over 99.99%.

Q: What about the “Bact. Count (Log 10)” value ([2]; concentration 0.02) of the same compound?
A: Its value is under 2.00 Log 10.

Q: What about the “% Red.” value ([2]; concentration 0.04) of the same compound?
A: Its value is over 99.99%.

Q: And the “Bact. Count (Log 10)” value ([2]; concentration 0.04)?
A: The value was under 2.00 Log 10.

Q: What about the “% Red.” value ([2]; concentration 0.06) of the same compound?
A: Its value is over 99.99%.

Q: And the “Bact. Count (Log 10)” value ([2]; concentration 0.06)?
A: Its value is under 2.00 Log 10.

Q: What about the “% Red.” value ([2]; concentration 0.07) of the same compound?
A: The value was over 99.99%.

Q: And the “Bact. Count (Log 10)” value ([2]; concentration 0.07)?
A: Its value is under 2.00 Log 10.

Q: And the “% Red.” value ([2]; concentration 0.08)?
A: Its value is over 99.99%.

Q: And the “Bact. Count (Log 10)” value ([2]; concentration 0.08)?
A: Its value is under 2.00 Log 10.

Q: For `COC(=O)c1ccccc1O` [Methyl salicylate, reference compound], which “LD 50 (Oral, Rat)” value ([1]; in vivo, po) is on record?
A: Its value is 887 mg/kg.

Q: With `C=CC(C)(O)CCC=C(C)CCC=C(C)C` (stereo not drawn) [Nerolidol] as the compound, how does the “LD 50 (Oral, Rat)” value [1, 3] read?
A: Its value is over 5000 mg/kg.

Q: Which “% Red.” value ([2]; concentration 0.01) does the source give for `Cc1ccc(C(C)C)c(O)c1` [Thymol, reference compound] here?
A: The value was 0%.

Q: And the “Bact. Count (Log 10)” value ([2]; concentration 0.01)?
A: Its value is 6.67 Log 10.

Q: And the “% Red.” value ([2]; concentration 0.02)?
A: Its value is 0%.

Q: And the “Bact. Count (Log 10)” value ([2]; concentration 0.02)?
A: The value was 6.71 Log 10.

Q: What about the “% Red.” value ([2]; concentration 0.04) of the same compound?
A: Its value is 0%.

Q: What about the “Bact. Count (Log 10)” value ([2]; concentration 0.04) of the same compound?
A: Its value is 6.23 Log 10.

Q: And the “% Red.” value ([2]; concentration 0.06)?
A: The value was 99.99%.

Q: And the “Bact. Count (Log 10)” value ([2]; concentration 0.06)?
A: Its value is 3.93 Log 10.

Q: And the “% Red.” value ([2]; concentration 0.07)?
A: Its value is over 99.99%.

Q: And the “Bact. Count (Log 10)” value ([2]; concentration 0.07)?
A: The value was under 2.00 Log 10.

Q: And the “% Red.” value ([2]; concentration 0.08)?
A: The value was over 99.99%.

Q: What about the “Bact. Count (Log 10)” value ([2]; concentration 0.08) of the same compound?
A: The value was under 2.00 Log 10.

— patent publication US5116602A, “Antiplaque oral compositions” (Colgate-Palmolive Company, priority 1989, dated 1992)
